In PubChem BioAssay AID220 (DTP/NCI, 2004):
“And” between values parts separate entries of the source, which are not always exact repeats. Equal values may be shown once. Results filed as inconclusive are left out.

Test system: CD8F1 mice, subcutaneous mammary adenocarcinoma, T/C%
Test: NCI In Vivo Anticancer Drug Screen. Data for tumor model Mammary Adenocarcinoma CD8F1 (subcutaneous) in CD8F1
Conditions: higher = larger tumour
Summary of the method: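 Tumor-bearing mice, transplantable model; readout survival or tumor size; value = treated (T) / vehicle control (C).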

[1] = endpoint: median tumor weight (est.), dose: 2.0 mg/kg/injection, schedule: Q07DX005 (ip), vehicle: Klucel (hydroxypropylcellulose) (HPC)
[2] = endpoint: median tumor weight (est.), dose: 4.0 mg/kg/injection, schedule: Q07DX005 (ip), vehicle: Klucel (hydroxypropylcellulose) (HPC)
[3] = endpoint: median tumor weight (est.), dose: 8.0 mg/kg/injection, schedule: Q07DX005 (ip), vehicle: Klucel (hydroxypropylcellulose) (HPC)
[4] = endpoint: median tumor weight (est.), dose: 16.0 mg/kg/injection, schedule: Q07DX005 (ip), vehicle: Klucel (hydroxypropylcellulose) (HPC)
[5] = endpoint: median tumor weight (est.), dose: 12.5 mg/kg/injection, schedule: Q07DX005 (ip), vehicle: saline with Tween-80
[6] = endpoint: median tumor weight (est.), dose: 25.0 mg/kg/injection, schedule: Q07DX005 (ip), vehicle: saline with Tween-80
[7] = endpoint: median tumor weight (est.), dose: 50.0 mg/kg/injection, schedule: Q07DX005 (ip), vehicle: saline with Tween-80
[8] = endpoint: median tumor weight (est.), dose: 100.0 mg/kg/injection, schedule: Q07DX005 (ip), vehicle: saline with Tween-80
[9] = endpoint: median tumor weight (est.), dose: 200.0 mg/kg/injection, schedule: Q07DX005 (ip), vehicle: saline with Tween-80

**Q.** Which T/C (endpoint: median tumor weight change, dose: 125.0 mg/kg/injection, schedule: Q01DX001 (ip), vehicle: suspension in saline) does the source give for `N=C(N)SCc1cccc2c(=O)cc(-c3ccccc3)oc12` here?
**A.** 151 % of control

**Q.** What about the T/C (endpoint: median tumor weight change, dose: 250.0 mg/kg/injection, schedule: Q01DX001 (ip), vehicle: suspension in saline) of the same compound?
**A.** 151 % of control

**Q.** What about the T/C (endpoint: median tumor weight change, dose: 500.0 mg/kg/injection, schedule: Q01DX001 (ip), vehicle: suspension in saline) of the same compound?
**A.** 106 % of control

**Q.** And the T/C (endpoint: median tumor weight change, dose: 1000.0 mg/kg/injection, schedule: Q01DX001 (ip), vehicle: suspension in saline)?
**A.** 123 % of control

**Q.** For `Nc1nc(=S)c2[nH]cnc2[nH]1`, which T/C (endpoint: median tumor weight (est.), dose: 1.0 mg/kg/injection, schedule: Q07DX005 (ip), vehicle: Klucel (hydroxypropylcellulose) (HPC)) is on record?
**A.** 71 % of control

**Q.** And the T/C [1]?
**A.** 74 % of control

**Q.** And the T/C [2]?
**A.** 42 % of control

**Q.** And the T/C [3]?
**A.** 20 % of control

**Q.** And the T/C (endpoint: median tumor weight (est.), dose: 8.0 mg/kg/injection, schedule: Q07DX005 (ip), vehicle: other)?
**A.** 29 % of control

**Q.** And the T/C (endpoint: median tumor weight (est.), dose: 12.0 mg/kg/injection, schedule: Q07DX005 (ip), vehicle: other)?
**A.** 19 % of control

**Q.** What about the T/C [4] of the same compound?
**A.** 7 % of control

**Q.** And the T/C (endpoint: median tumor weight (est.), dose: 16.0 mg/kg/injection, schedule: Q07DX005 (ip), vehicle: other)?
**A.** 16 % of control

**Q.** Which results are given for `Cc1ccc(NC(=O)Oc2ccc(Br)cc2Br)c([N+](=O)[O-])c1`?
**A.** T/C [5]: 121 % of control; T/C [6]: 93 % of control; T/C [7]: 115 % of control; T/C [8]: 77 % of control; T/C [9]: 124 % of control; T/C (endpoint: median tumor weight (est.), dose: 400.0 mg/kg/injection, schedule: Q07DX005 (ip), vehicle: saline with Tween-80): 98 % of control; T/C (endpoint: median tumor weight change, dose: 250.0 mg/kg/injection, schedule: Q01DX001 (ip), vehicle: saline with Tween-80): 52 % of control; T/C (endpoint: median tumor weight change, dose: 500.0 mg/kg/injection, schedule: Q01DX001 (ip), vehicle: saline with Tween-80): 88 % of control; T/C (endpoint: median tumor weight change, dose: 1000.0 mg/kg/injection, schedule: Q01DX001 (ip), vehicle: saline with Tween-80): 50 % of control; T/C (endpoint: median tumor weight change, dose: 1800.0 mg/kg/injection, schedule: Q01DX001 (ip), vehicle: saline with Tween-80): 74 % of control; T/C (endpoint: median tumor weight change, dose: 2000.0 mg/kg/injection, schedule: Q01DX001 (ip), vehicle: saline with Tween-80): 59 % of control; T/C (endpoint: median tumor weight change, dose: 3600.0 mg/kg/injection, schedule: Q01DX001 (ip), vehicle: saline with Tween-80): 44 % of control

**Q.** How did the T/C (endpoint: median tumor weight change, dose: 62.5 mg/kg/injection, schedule: Q01DX001 (ip), vehicle: saline with Tween-80) turn out when `O=[N+]([O-])c1ccc(Sc2ccncn2)c([N+](=O)[O-])c1` was run?
**A.** 108 % of control

**Q.** What about the T/C (endpoint: median tumor weight change, dose: 125.0 mg/kg/injection, schedule: Q01DX001 (ip), vehicle: saline with Tween-80) of the same compound?
**A.** 62 % of control

**Q.** `CC[PH+](CC)CC[S-].CC[PH+](CC)CC[S-].[Au+].[Au+]` was tested. Which T/C (endpoint: median tumor weight change, dose: 100.0 mg/kg/injection, schedule: Q01DX001 (ip), vehicle: Klucel (hydroxypropylcellulose) (HPC)) did it give?
**A.** 29 % of control and 34 % of control

**Q.** And the T/C (endpoint: median tumor weight change, dose: 200.0 mg/kg/injection, schedule: Q01DX001 (ip), vehicle: Klucel (hydroxypropylcellulose) (HPC))?
**A.** 24 % of control

**Q.** What does the source list for `CCOC(=O)CNC(=O)CCCCSc1ncnc2nc[nH]c12`?
**A.** T/C (endpoint: mean tumor weight, dose: 20.0 mg/kg/injection, schedule: Q07DX005 (ip), vehicle: saline): 121 % of control; T/C (endpoint: mean tumor weight, dose: 40.0 mg/kg/injection, schedule: Q07DX005 (ip), vehicle: saline): 84 % of control; T/C (endpoint: mean tumor weight, dose: 80.0 mg/kg/injection, schedule: Q07DX005 (ip), vehicle: saline): 48 % of control; T/C (endpoint: mean tumor weight, dose: 160.0 mg/kg/injection, schedule: Q07DX005 (ip), vehicle: saline): 39 % of control; T/C (endpoint: mean tumor weight, dose: 320.0 mg/kg/injection, schedule: Q07DX005 (ip), vehicle: saline): 67 % of control; T/C (endpoint: mean tumor weight, dose: 640.0 mg/kg/injection, schedule: Q07DX005 (ip), vehicle: saline): 45 % of control; T/C (endpoint: median tumor weight (est.), dose: 20.0 mg/kg/injection, schedule: Q07DX004 (ip), vehicle: saline): 78 % of control; T/C (endpoint: median tumor weight (est.), dose: 40.0 mg/kg/injection, schedule: Q07DX004 (ip), vehicle: saline): 63 % of control; T/C (endpoint: median tumor weight (est.), dose: 80.0 mg/kg/injection, schedule: Q07DX004 (ip), vehicle: saline): 40 % of control; T/C (endpoint: median tumor weight (est.), dose: 160.0 mg/kg/injection, schedule: Q07DX004 (ip), vehicle: saline): 97 % of control; T/C (endpoint: median tumor weight (est.), dose: 320.0 mg/kg/injection, schedule: Q07DX004 (ip), vehicle: saline): 109 % of control

**Q.** `COc1ccc2nc3cc(Cl)ccc3c(NCCNCCNCCNc3c4ccc(Cl)cc4nc4ccc(OC)cc34)c2c1` was tested. Which T/C [5] did it give?
**A.** 86 % of control and 108 % of control

**Q.** And the T/C [6]?
**A.** 68 % of control

**Q.** What about the T/C [7] of the same compound?
**A.** 88 % of control

**Q.** What does the source list for `CN(C)CCCNc1c2ccccc2nc2cccc([N+](=O)[O-])c12`?
**A.** T/C (endpoint: median tumor weight (est.), dose: 0.06 mg/kg/injection, schedule: Q07DX004 (ip), vehicle: saline): 90 % of control; T/C (endpoint: median tumor weight (est.), dose: 15.0 micrograms/kg/injection, schedule: Q07DX005 (ip), vehicle: saline): 86 % of control

**Q.** `O=c1s[se]c2ccccc12` was tested. Which T/C (endpoint: median tumor weight (est.), dose: 3.12 mg/kg/injection, schedule: Q07DX005 (ip), vehicle: saline with Tween-80) did it give?
**A.** 86 % of control

**Q.** And the T/C (endpoint: median tumor weight (est.), dose: 6.25 mg/kg/injection, schedule: Q07DX005 (ip), vehicle: saline with Tween-80)?
**A.** 187 % of control

**Q.** And the T/C [5]?
**A.** 156 % of control

**Q.** And the T/C [6]?
**A.** 82 % of control

**Q.** What about the T/C [7] of the same compound?
**A.** 81 % of control

**Q.** Which results are given for `CC1CCC(NC(=O)N(CCCl)N=O)CC1` (stereo not drawn)?
**A.** T/C (endpoint: mean tumor weight, dose: 6.25 mg/kg/injection, schedule: Q01DX009 (ip), vehicle: saline + alcohol): 108 % of control; T/C (endpoint: mean tumor weight, dose: 6.25 mg/kg/injection, schedule: Q01DX009 (ip), vehicle: saline): 214 % of control; T/C (endpoint: mean tumor weight, dose: 12.5 mg/kg/injection, schedule: Q01DX009 (ip), vehicle: saline + alcohol): 27 % of control; T/C (endpoint: mean tumor weight, dose: 12.5 mg/kg/injection, schedule: Q01DX009 (ip), vehicle: saline): 50 % of control; T/C (endpoint: mean tumor weight, dose: 12.5 mg/kg/injection, schedule: Q07DX006 (ip), vehicle: saline + alcohol): 63 % of control; T/C (endpoint: mean tumor weight, dose: 12.5 mg/kg/injection, schedule: Q07DX006 (ip), vehicle: saline): 24 % of control; T/C (endpoint: mean tumor weight, dose: 12.5 mg/kg/injection, schedule: Q07DX007 (ip), vehicle: saline + alcohol): 124 % of control; T/C (endpoint: mean tumor weight, dose: 25.0 mg/kg/injection, schedule: Q01DX009 (ip), vehicle: saline): 47 % of control; T/C (endpoint: mean tumor weight, dose: 25.0 mg/kg/injection, schedule: Q07DX006 (ip), vehicle: saline + alcohol): 28 % of control; T/C (endpoint: mean tumor weight, dose: 25.0 mg/kg/injection, schedule: Q07DX006 (ip), vehicle: saline): 48 % of control; T/C (endpoint: mean tumor weight, dose: 25.0 mg/kg/injection, schedule: Q07DX007 (ip), vehicle: saline + alcohol): 100 % of control; T/C (endpoint: mean tumor weight, dose: 50.0 mg/kg/injection, schedule: Q07DX006 (ip), vehicle: saline + alcohol): 4 % of control; T/C (endpoint: mean tumor weight, dose: 50.0 mg/kg/injection, schedule: Q07DX006 (ip), vehicle: saline): 7 % of control; T/C (endpoint: mean tumor weight, dose: 50.0 mg/kg/injection, schedule: Q07DX007 (ip), vehicle: saline + alcohol): 66 % of control; T/C [1]: 98 % of control; T/C [2]: 50 % of control; T/C [3]: 38 % of control; T/C [4]: 24 % of control; T/C (endpoint: median tumor weight change, dose: 8.0 mg/kg/injection, schedule: Q01DX001 (ip), vehicle: Klucel (hydroxypropylcellulose) (HPC)): 98 % of control; T/C (endpoint: median tumor weight change, dose: 13.8 mg/kg/injection, schedule: Q01DX001 (ip), vehicle: Klucel (hydroxypropylcellulose) (HPC)): 68 % of control; T/C (endpoint: median tumor weight change, dose: 16.0 mg/kg/injection, schedule: Q01DX001 (ip), vehicle: Klucel (hydroxypropylcellulose) (HPC)): 78 % of control; T/C (endpoint: median tumor weight change, dose: 23.0 mg/kg/injection, schedule: Q01DX001 (ip), vehicle: Klucel (hydroxypropylcellulose) (HPC)): 23 % of control; T/C (endpoint: median tumor weight change, dose: 32.0 mg/kg/injection, schedule: Q01DX001 (ip), vehicle: Klucel (hydroxypropylcellulose) (HPC)): 42 % of control; T/C (endpoint: median tumor weight change, dose: 38.4 mg/kg/injection, schedule: Q01DX001 (ip), vehicle: Klucel (hydroxypropylcellulose) (HPC)): -12 % of control; T/C (endpoint: median tumor weight change, dose: 64.0 mg/kg/injection, schedule: Q01DX001 (ip), vehicle: Klucel (hydroxypropylcellulose) (HPC)): -13 % of control and -32 % of control

**Q.** For `CC(C)=CCNc1ncnc2c1ncn2C1OC(CO)C(O)C1O` (stereo not drawn), which T/C [5] is on record?
**A.** 78 % of control

**Q.** What about the T/C [6] of the same compound?
**A.** 84 % of control

**Q.** What about the T/C [7] of the same compound?
**A.** 113 % of control

**Q.** What about the T/C [8] of the same compound?
**A.** 85 % of control

**Q.** And the T/C [9]?
**A.** 82 % of control

**Q.** What does the source list for `Cc1c2ccccc2c(C)c2c1cc(C(=O)O)c1ccccc12`?
**A.** T/C (endpoint: median tumor weight change, dose: 50.0 mg/kg/injection, schedule: Q01DX001 (ip), vehicle: sodium bicarbonate): 83 % of control; T/C (endpoint: median tumor weight change, dose: 100.0 mg/kg/injection, schedule: Q01DX001 (ip), vehicle: sodium bicarbonate): 82 % of control; T/C (endpoint: median tumor weight change, dose: 200.0 mg/kg/injection, schedule: Q01DX001 (ip), vehicle: sodium bicarbonate): 155 % of control; T/C (endpoint: median tumor weight change, dose: 400.0 mg/kg/injection, schedule: Q01DX001 (ip), vehicle: sodium bicarbonate): 153 % of control
